According to ChEMBL document CHEMBL3045108, “Advanced QSRR models of toxicological screening of basic drugs in whole blood by UPLC-TOFMS” (Med Chem Res, 2012):

test system: Blood; test: Drug level in Homo sapiens (human) whole blood assessed as retention time by UPLC-TOF-MS analysis

In order of falling Retention_time:
1. CCOC(=O)C1=C(C)NC(C)=C(C(=O)OC)C1c1cccc(Cl)c1Cl (centres undefined) [FELODIPINE]  7.44 min
2. O=C1CN=C(c2ccccc2)c2cc(Cl)ccc2N1CC1CC1 [PRAZEPAM]  7.25 min
3. O=C1CN=C(c2ccccc2)c2cc(Cl)ccc2N1CC(F)(F)F [HALAZEPAM]  7.22 min
4. CCOC(=O)C1(c2ccccc2)CCN(CCC(C#N)(c2ccccc2)c2ccccc2)CC1 [DIPHENOXYLATE]  6.56 min
5. O=C1CN=C(c2ccccc2Cl)c2cc(Br)ccc2N1 [PHENAZEPAM]  6.45 min
6. CN1C(=O)C(O)N=C(c2ccccc2Cl)c2cc(Cl)ccc21 (centres undefined) [LORMETAZEPAM]  6.41 min
7. COC(=O)C1=C(C)NC(C)=C(C(=O)OC)C1c1ccccc1[N+](=O)[O-] [NIFEDIPINE]  6.4 min
8. CN(C)C(=O)C(CCN1CCC(O)(c2ccc(Cl)cc2)CC1)(c1ccccc1)c1ccccc1 [LOPERAMIDE]  6.37 min
9. O=C1NCCN1CCN1CCC(c2cn(-c3ccc(F)cc3)c3ccc(Cl)cc23)CC1 [SERTINDOLE]  6.3 min
10. CN1C(=O)CC(=O)N(c2ccccc2)c2cc(Cl)ccc21 [CLOBAZAM]  6.28 min
11. CN(C)CCCN1c2ccccc2CCc2ccc(Cl)cc21 [CLOMIPRAMINE]  6.22 min
12. CCNCCN1C(=O)CN=C(c2ccccc2F)c2cc(Cl)ccc21  6.19 min
13. CN(C)CC/C=C1/c2ccccc2Sc2ccc(Cl)cc21 [CHLORPROTHIXENE]  6.18 min
14. CCCCNC(=O)NS(=O)(=O)c1ccc(C)cc1 [TOLBUTAMIDE]  6.16 min
15. CN1C(=O)CN=C(c2ccccc2F)c2cc([N+](=O)[O-])ccc21 [FLUNITRAZEPAM]  6.16 min
16. Cc1nnc2n1-c1ccc(Cl)cc1C(c1ccccc1)=NC2 [ALPRAZOLAM]  6.09 min
17. CNCCC(Oc1ccc(C(F)(F)F)cc1)c1ccccc1 (centres undefined) [FLUOXETINE]  6.08 min
18. CC(CN(C)C)CN1c2ccccc2CCc2ccccc21 (centres undefined) [TRIMIPRAMINE]  6.05 min
19. O=C1Nc2ccc(Cl)cc2C(c2ccccc2Cl)=NC1O (centres undefined) [LORAZEPAM]  6.02 min
20. CCC(=O)O[C@](Cc1ccccc1)(c1ccccc1)[C@H](C)CN(C)C [PROPOXYPHENE]  5.98 min
21. Clc1ccc2c(c1)C(c1ccccc1)=NCc1nncn1-2 [ESTAZOLAM]  5.95 min
22. CNCCC=C1c2ccccc2CCc2ccccc21 [NORTRIPTYLINE]  5.92 min
23. OCCOCCN1CCN(C(c2ccccc2)c2ccc(Cl)cc2)CC1 (centres undefined) [HYDROXYZINE]  5.91 min
24. CN(C)CCC=C1c2ccccc2CCc2ccccc21 [AMITRIPTYLINE]  5.86 min
25. CN(C)CCCN1c2ccccc2CCc2ccccc21 [IMIPRAMINE]  5.81 min
26. O=C1CN=C(c2ccccc2)c2cc([N+](=O)[O-])ccc2N1 [NITRAZEPAM]  5.8 min
27. CC1Cc2ccccc2N1NC(=O)c1ccc(Cl)c(S(N)(=O)=O)c1 (centres undefined) [INDAPAMIDE]  5.79 min
28. OC(CCN1CCCC1)(c1ccccc1)C1CCCCC1 (centres undefined) [PROCYCLIDINE]  5.78 min
29. OC(CCN1CCCCC1)(c1ccccc1)C1CC2C=CC1C2 (centres undefined) [BIPERIDEN]  5.78 min
30. CC(=O)c1ccc2c(c1)N(CCCN(C)C)c1ccccc1S2 [ACEPROMAZINE]  5.67 min
31. Fc1ccc([C@@H]2CCNC[C@H]2COc2ccc3c(c2)OCO3)cc1 [PAROXETINE]  5.66 min
32. Cc1ccc(/C(=C\CN2CCCC2)c2cccc(/C=C/C(=O)O)n2)cc1 [ACRIVASTINE]  5.64 min
33. COc1ccc([C@@H]2Sc3ccccc3N(CCN(C)C)C(=O)[C@@H]2OC(C)=O)cc1 [DILTIAZEM]  5.63 min
34. O=C1C[N+]([O-])=C(c2ccccc2)c2cc(Cl)ccc2N1 [DEMOXEPAM]  5.62 min
35. O=C1CC(=O)N(c2ccccc2)c2cc(Cl)ccc2N1 [NOR-CLOBAZAM]  5.61 min
36. CN(C)CCCC1(c2ccc(F)cc2)OCc2cc(C#N)ccc21 (centres undefined) [CITALOPRAM]  5.53 min
37. CN1CCN(C(c2ccccc2)c2ccccc2)CC1 [CYCLIZINE]  5.52 min
38. CN1CCN2c3ccccc3Cc3ccccc3C2C1 (centres undefined) [MIANSERIN]  5.48 min
39. CN1CCN=C(c2ccccc2)c2cc(Cl)ccc21 [MEDAZEPAM]  5.45 min
40. Cc1ncc2n1-c1ccc(Cl)cc1C(c1ccccc1F)=NC2 [MIDAZOLAM]  5.45 min
41. COc1ccc2c(c1)[C@]13CCCC[C@@H]1[C@H](C2)N(C)CC3 [DEXTROMETHORPHAN]  5.38 min
42. O=C1CN=C(c2ccccn2)c2cc(Br)ccc2N1 [BROMAZEPAM]  5.33 min
43. NC(=O)N1c2ccccc2CC(=O)c2ccccc21 [OXCARBAZEPINE]  5.29 min
44. CC(C)NCC(O)COc1cccc2ccccc12 (centres undefined) [PROPRANOLOL]  5.28 min
45. c1ccc(C2(N3CCCCC3)CCCCC2)cc1 [PHENCYCLIDINE]  5.23 min
46. CN1CCC[C@@H]1Cc1c[nH]c2ccc(CCS(=O)(=O)c3ccccc3)cc12  5.21 min
47. CCOC(=O)c1ccc(N)cc1 [BENZOCAINE]  5.15 min
48. CCOC(=O)c1ncn2c1CN(C)C(=O)c1cc(F)ccc1-2 [FLUMAZENIL]  5.13 min
49. CCCCN1CCCCC1C(=O)Nc1c(C)cccc1C (centres undefined) [BUPIVACAINE]  5.08 min
50. COc1ccc(C(CN(C)C)C2(O)CCCCC2)cc1 (centres undefined) [VENLAFAXINE]  5.06 min
51. CC(C)NCC(O)COc1ccc(COCCOC(C)C)cc1 (centres undefined) [BISOPROLOL]  5.06 min
52. CC(CCc1ccccc1)NCC(O)c1ccc(O)c(C(N)=O)c1 (centres undefined) [LABETALOL]  4.95 min
53. CC[C@H]1C[C@@H]2C[C@H]3c4[nH]c5ccc(OC)cc5c4CCN(C2)[C@@H]13 [IBOGAINE]  4.94 min
54. c1cc2c(c(N3CCNCC3)c1)OCCO2 [ELTOPRAZINE]  4.9 min
55. CCN(CC)C(=O)[C@@H]1C=C2c3cccc4[nH]cc(c34)C[C@H]2N(C)C1 [LYSERGIDE]  4.88 min
56. NC1=Nc2ccc(Cl)cc2C(c2ccccc2)=[N+]([O-])C1  4.85 min
57. CCOC(=O)C1(c2ccccc2)CCN(C)CC1 [MEPERIDINE]  4.68 min
58. COc1ccc(CN(CCN(C)C)c2ccccn2)cc1 [PYRILAMINE]  4.57 min
59. COc1cc(CCN)c(OC)cc1Br  4.52 min
60. COC(=O)[C@H]1[C@@H](OC(=O)c2ccccc2)C[C@@H]2CC[C@H]1N2C [COCAINE]  4.46 min
61. Clc1cccc(N2CCNCC2)c1 [CHLOROPHENYLPIPERAZINE]  4.08 min
62. CCCC(=O)Nc1ccc(OCC(O)CNC(C)C)c(C(C)=O)c1 (centres undefined) [ACEBUTOLOL]  4.07 min
63. CN1C(=O)CN=C(c2ccccc2F)c2cc(N)ccc21 [7-AMINO-FLUNITRAZEPAM]  4.02 min
64. CN1CCN2c3ncccc3Cc3ccccc3C2C1 (centres undefined) [MIRTAZAPINE]  3.91 min
65. CN1CCN(C(=O)OC2c3nccnc3C(=O)N2c2ccc(Cl)cn2)CC1 (centres undefined) [ZOPICLONE]  3.88 min
66. CN1CC[C@]23CCCC[C@H]2[C@H]1Cc1ccc(O)cc13 [LEVORPHANOL]  3.82 min
67. Nc1nnc(-c2cccc(Cl)c2Cl)c(N)n1 [LAMOTRIGINE]  3.78 min
68. CCN(CC)CCNC(=O)c1cc(Cl)c(N)cc1OC [METOCLOPRAMIDE]  3.64 min
69. Cc1cccc(C)c1NC(=O)C1CCCCN1C (centres undefined) [MEPIVACAINE]  3.46 min
70. CCN1CCCC1CNC(=O)c1cc(S(=O)(=O)CC)c(N)cc1OC (centres undefined) [AMISULPRIDE]  3.4 min
71. O=C(NCCN1CCOCC1)c1ccc(Cl)cc1 [MOCLOBEMIDE]  3.39 min
72. Nc1ccc2c(c1)C(c1ccccc1Cl)=NCC(=O)N2 [7-AMINOCLONAZEPAM]  3.39 min
73. CCC(=O)C1(c2cccc(O)c2)CCN(C)CC1 [KETOBEMIDONE]  3.22 min
74. CNC(C)Cc1ccc(OC)cc1 (centres undefined)  3.14 min
75. CC(C)(N)Cc1ccccc1 [PHENTERMINE]  3.08 min
76. CCN(CC)C(C)C(=O)c1ccccc1 (centres undefined) [DIETHYLPROPION]  3.05 min
77. CC(C)NCC(O)COc1cccc2[nH]ccc12 (centres undefined) [PINDOLOL]  3 min
78. COc1ccc(CC(C)N)cc1 (centres undefined) [PARA-METHOXYAMPHETAMINE]  2.91 min
79. CN(C)CCc1c[nH]c2ccccc12  2.89 min
80. CNC(C)Cc1ccc2c(c1)OCO2 (centres undefined) [MIDOMAFETAMINE]  2.89 min
81. CN(C)CCc1c[nH]c2ccc(C[C@H]3COC(=O)N3)cc12 [ZOLMITRIPTAN]  2.7 min
82. COc1ccc2c3c1O[C@H]1C(=O)CC[C@@]4(O)[C@@H](C2)N(C)CC[C@]314 [OXYCODONE]  2.67 min
83. CC(N)Cc1ccccc1 (centres undefined) [AMPHETAMINE]  2.6 min
84. COc1ccc2c3c1O[C@H]1[C@@H](O)C=C[C@H]4[C@@H](C2)N(C)CC[C@@]341 [CODEINE]  2.5 min
85. C=CCN1CC[C@]23c4c5ccc(O)c4O[C@H]2C(=O)CC[C@@]3(O)[C@H]1C5 [NALOXONE]  2.46 min
86. Clc1cccc(Cl)c1N=C1NCCN1 [CLONIDINE]  2.44 min
87. NCC1(CC(=O)O)CCCCC1 [GABAPENTIN]  2.41 min
88. CN[C@@H](C)[C@H](O)c1ccccc1 [EPHEDRINE]  2.28 min
89. CN[C@@H](C)[C@@H](O)c1ccccc1 [PSEUDOEPHEDRINE]  2.28 min
90. CCN1CCCC1CNC(=O)c1cc(S(N)(=O)=O)ccc1OC (centres undefined) [SULPIRIDE]  2.21 min
91. C[C@H](N)C(=O)c1ccccc1 [CATHINONE]  2.09 min
92. C[C@H](N)[C@@H](O)c1ccccc1 [CATHINE]  2.05 min
93. CC(C)NCC(O)c1ccc(NS(C)(=O)=O)cc1 (centres undefined) [SOTALOL]  2.02 min
94. CN1CC[C@]23c4c5ccc(O)c4O[C@H]2C(=O)CC[C@H]3[C@H]1C5 [HYDROMORPHONE]  1.84 min
